In patent publication US8178349B2, “Homogeneous neural precursor cells” (Burnham Institute For Medical Research, priority 2005, dated 2012):

Experiments:
Assay type in all cases: cell-based, human
hESCs = test: Spheroid bodies formation in suspension medium; details: addition to the suspension medium (2 mM)
Protocol: Spheroid bodies formation: the small clusters (10-100 cells) of hESCs were grown in polypropylene dishes (Ted Pella) in Suspension Medium (1:1 ratio of DMEM/F12:neurobasal medium with N2+B27 supplements, 20 ng/ml insulin 20 ng/ml bFGF, 20 ng/ml EGF and 2 mM N-acetyl cysteine (NAC)). The spheres were grown for 4-6 days, with a change in medium every alternate day.

[1] = tested on: glutamate receptors of differentiated hES-NPCs cultures; test: Calcium imaging; details: 4-5 week old cultures; NMDA followed by glutamate, 37° C.
Protocol: Calcium Imaging. Measurement of intracellular free Ca2+ ([Ca2+]i) in differentiated HNSC cultures was performed using Fura-2-AM or Fluo-3-AM as described earlier (Tenneti et al., J Neurochem 71: 946-59, 1998) with the minor modification. Briefly, ES derived hNPC cells were washed twice with recording medium containing 150 mM NaCl, 3 mM KCl, 2 mM CaCl2, 5 mM glucose, 10 μM glycine, and 10 mM HEPES (pH 7.4) and incubated generally at 37° C. in recording medium containing 30 nM Pluronic F-127 and 5 μM Fluo-3 AM for 30 minor 10 μMFura-2-AM for 60 min (acetoxymethyl esters; Molecular Probes). Cultures were then washed three times with recording medium, followed by settlement at 37° C. for at least 30 min. Cells were invariably used within 1 hr after these procedures for observation. During the experiments, cells were kept in a perfusion chamber on the microscope stage at room temperature (Fluo-3) or 37° C. (Fura-2 experiments). Imaging was done using a Sutter DG-4 fast wavelength switcher coupled to a Zeiss Axiovert microscope with a 20×, 0.5 NA, objective. […] Changes in fluorescence intensity were calculated by dividing the measured fluorescence intensity (F; ratio of 340/380 nm for Fura-2) by the measured average baseline fluorescence intensity (F/F0) Excitation was achieved using standard FITC or Fura-2 filter sets (Chroma technologies).

[2] = tested on: Voltage-gated Na+ currents of differentiated hES-NPCs
[3] = tested on: NMDA-type glutamate receptors of differentiated hES-NPCs; test: Whole-cell patch-clamp recording of ligand-gated currents; details: for effect on glutamate-evoked currents: voltage clamp, holding potential −60 mV, after 2 to 2.5 weeks in culture, 100 μM D-APV
differentiated hES-NPCs = test: Whole-cell patch-clamp recording of GABA-evoked currents; details: 2.5 weeks in culture

Question: With `CC(=O)N[C@@H](CS)C(=O)O` [NAC, N-acetyl cysteine] as the compound, how does the “morphology of spheroid bodies” value (hESCs) read?
Answer: The value was “healthier morphology of spheroid bodies”.

Question: For `CN[C@H](CC(=O)O)C(=O)O` [NMDA, N-methyl-D-aspartate], which “[Ca2+] response of fura-2-loaded cells” value [1] is on record?
Answer: The value was “Robust responses”.

Question: How did the “effect on fast Na+ currents” value [2] turn out when `NC1=N[C@H](O)[C@H]2[C@H]3O[C@]4(O)O[C@@H]([C@@H](O)[C@@]2(N1)[C@@H]4O)[C@]3(O)CO` [TTX, tetrodotoxin] was run?
Answer: The value was “reversibly blocked”.

Question: For `N[C@@H](CCC(=O)O)C(=O)O` [glutamate], which “cells that manifest agonist-evoked currents” value ([3]; after 2 weeks in culture) is on record?
Answer: Its value is “approximately 30%”.

Question: And the “[Ca2+] response of fura-2-loaded cells” value [1]?
Answer: Its value is “Robust responses”.

Question: Which results are given for `N[C@H](CCCP(=O)(O)O)C(=O)O` [D-APV, D-(−)-2 amino-5-phosphonovaleric acid]?
Answer: effect on glutamate-evoked currents [3]: partially blocked; effect on glutamate-evoked currents ([3]; listed as APV): partially inhibited

Question: How did the “cells with agonist-evoked currents (cells of cells recorded)” value (differentiated hES-NPCs) turn out when `NCCCC(=O)O` [GABA, γ-aminobutyric acid] was run?
Answer: The value was 4 of 29.
